Here are results for one molecule from PMC3963422 (Journal of Visualized Experiments : JoVE, 2013).

The structures appear in SMILES notation.

Assay [1] can be described thus: cantilever array surface stress detection, D-Lac coated cantilevers, buffer. The class given is binding.
Assay [2] in a line: cantilever bending in serum, D-Ala coated cantilevers. The class given is binding. Conditions: 7 μM Van in serum (90% fetal calf serum plus 10% sodium phosphate buffer pH 7.4), 25 °C.
The nature of assay [3]: cantilever bending in serum, D-Lac coated cantilevers. The class given is binding. Conditions: 7 μM Van in serum (90% fetal calf serum plus 10% sodium phosphate buffer pH 7.4), 25 °C.
For assay [4] the following is noted: D-Lac vs D-Ala peptide terminus; cited from earlier work.
For assay [5], the system named is vancomycin-resistant Enterococcus (VRE). Conditions: vancomycin-resistant Enterococcus (D-Lac); cited from earlier work.

As to `CN[C@H](CC(C)C)C(=O)N[C@H]1C(=O)N[C@@H](CC(N)=O)C(=O)N[C@H]2C(=O)N[C@H]3C(=O)N[C@H](C(=O)N[C@H](C(=O)O)c4cc(O)cc(O)c4-c4cc3ccc4O)[C@H](O)c3ccc(c(Cl)c3)Oc3cc2cc(c3O[C@@H]2O[C@H](CO)[C@@H](O)[C@H](O)[C@H]2O[C@H]2C[C@](C)(N)[C@H](O)[C@H](C)O2)Oc2ccc(cc2Cl)[C@H]1O` [Van, vancomycin], the “bending signal at high vancomycin concentration” value in assay [1] is given as “measureable bending signals”. Moreover, the differential bending signal in assay [2] is recorded as 105±4 nm. Also, the bending signal entry in assay [3] is “no bending was observed”. In addition, the “reduction in Van-D-Lac binding affinity” value in assay [4] is recorded as “three orders of magnitude”. The “therapeutic effectiveness against Enterococcal infections” value in assay [5] was “therapeutically ineffective”.
